Measured values taken from paper doi:10.1101/2022.01.03.474871v1 (biorxiv, 2022).

Columns and labels:
[1] = target: T1, RpfC (full-length, in liposomes) (Xanthomonas campestris, UniProt P0C0F7); experiment: […] autophosphorylation assay, RpfC liposomes; format: biochemical; details: activation of autokinase; 100 µM ATP, pH 7.8, 5 mM MgCl2, 28 °C
[2] = target: T1, RpfC (full-length, in liposomes); experiment: label-free microscale thermophoresis, RpfC liposomes; format: binding; details: 50 mM Tris-HCl pH 7.8, 150 mM NaCl, 10 mM MgCl2, 0.1% Pluronic F-127

T1 sequence (P0C0F7 whole entry): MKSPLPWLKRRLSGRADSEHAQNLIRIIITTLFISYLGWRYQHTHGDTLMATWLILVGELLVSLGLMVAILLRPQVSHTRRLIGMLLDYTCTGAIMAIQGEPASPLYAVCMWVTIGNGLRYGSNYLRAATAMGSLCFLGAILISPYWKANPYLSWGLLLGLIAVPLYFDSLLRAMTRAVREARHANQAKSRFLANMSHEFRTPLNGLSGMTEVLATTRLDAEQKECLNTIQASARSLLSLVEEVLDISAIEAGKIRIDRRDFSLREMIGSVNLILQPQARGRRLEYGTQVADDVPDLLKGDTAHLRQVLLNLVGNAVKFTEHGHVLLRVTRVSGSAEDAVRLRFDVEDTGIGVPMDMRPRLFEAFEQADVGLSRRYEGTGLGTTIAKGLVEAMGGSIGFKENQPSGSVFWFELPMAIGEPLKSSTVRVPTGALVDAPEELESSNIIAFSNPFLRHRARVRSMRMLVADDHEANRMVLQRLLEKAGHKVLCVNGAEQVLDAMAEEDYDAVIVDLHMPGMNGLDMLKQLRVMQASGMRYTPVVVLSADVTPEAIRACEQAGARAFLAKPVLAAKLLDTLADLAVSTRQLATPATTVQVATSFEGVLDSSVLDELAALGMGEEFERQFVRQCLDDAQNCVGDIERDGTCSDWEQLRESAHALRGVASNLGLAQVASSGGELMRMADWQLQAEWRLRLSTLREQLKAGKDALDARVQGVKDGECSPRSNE

Row | EC50 [1] | Kd [2] | SMILES
1 | 1110 nM | 11200 ± 950 nM | CCCCCCCCC/C=C/C(=O)O [trans-BDSF]
2 | ~60 nM |  | CCCCCCCCC/C=C\C(=O)O [BDSF, cis-2-dodecenoic acid]
